In this data set the test system is CCRIS mutagenicity, Ames/micronucleus/aberration tests. In words: CCRIS mutagenicity studies.

The source made the active and inactive calls. How the calls were made is not given here.

Consider `O=CC=O`, for which the mutagenic call reads like this: (End Point: IN VITRO CHROMOSOMAL ABERRATIONS, Test System: CHL CELLS, Metabolic Activation: NONE) “active; positive (structural and ploidy changes)”; (End Point: IN VITRO CHROMOSOMAL ABERRATIONS, Test System: CHL CELLS, Metabolic Activation: RAT, LIVER, S-9, SODIUM PHENOBARBITAL AND 5,6-BENZOFLAVONE) “active; positive (structural and ploidy changes)”; (Test System: AMES SALMONELLA TYPHIMURIUM, Strain/Indicator: TA97, Metabolic Activation: NONE, Method: PREINCUBATION) “inactive; negative”; (Test System: AMES SALMONELLA TYPHIMURIUM, Strain/Indicator: TA98, Metabolic Activation: RAT, LIVER, S-9, AROCLOR 1254, Method: PREINCUBATION) “active; positive”; (Test System: AMES SALMONELLA TYPHIMURIUM, Strain/Indicator: TA100, Metabolic Activation: NONE) “active; positive”; (Test System: AMES SALMONELLA TYPHIMURIUM, Strain/Indicator: TA100, Metabolic Activation: NONE, Method: STANDARD PLATE) “active; positive”. For the same compound, the mutagenic call reads like this: (Test System: AMES SALMONELLA TYPHIMURIUM, Strain/Indicator: TA100, Metabolic Activation: RAT LIVER S-9, PHENOBARBITAL AND BETA-NAPHTHOFLAVONE, Method: PREINCUBATION) “active; positive”; (Test System: AMES SALMONELLA TYPHIMURIUM, Strain/Indicator: TA100, Metabolic Activation: RAT, LIVER, S-9, AROCLOR 1254, Method: PREINCUBATION) “active; positive”; (Test System: AMES SALMONELLA TYPHIMURIUM, Strain/Indicator: TA100, Metabolic Activation: RAT, LIVER, S-9, PHENOBARBITAL AND 5,6-BENZOFLAVONE, Method: PREINCUBATION) “active; positive”; (Test System: AMES SALMONELLA TYPHIMURIUM, Strain/Indicator: TA100, Metabolic Activation: S-9) “active; positive”; (Test System: AMES SALMONELLA TYPHIMURIUM, Strain/Indicator: TA102, Metabolic Activation: RAT, LIVER, S-9, AROCLOR 1254, Method: PREINCUBATION) “active; positive”; (Test System: AMES SALMONELLA TYPHIMURIUM, Strain/Indicator: TA102, Metabolic Activation: RAT, LIVER, S-9, AROCLOR 1254, Method: STANDARD PLATE) “active; positive”. For the same compound, the mutagenic call is, setting by setting: (Test System: AMES SALMONELLA TYPHIMURIUM, Strain/Indicator: TA102, Metabolic Activation: RAT, LIVER, S-9, PHENOBARBITAL AND 5,6-BENZOFLAVONE, Method: PREINCUBATION) “active; positive”; (Test System: AMES SALMONELLA TYPHIMURIUM, Strain/Indicator: TA104, Metabolic Activation: NONE, Method: PREINCUBATION) “active; positive”; (Test System: AMES SALMONELLA TYPHIMURIUM, Strain/Indicator: TA104, Metabolic Activation: RAT, LIVER, S-9, PHENOBARBITAL AND 5,6-BENZOFLAVONE, Method: PREINCUBATION) “active; positive”; (Test System: AMES SALMONELLA TYPHIMURIUM, Strain/Indicator: TA1535, Metabolic Activation: RAT LIVER S-9, PHENOBARBITAL AND BETA-NAPHTHOFLAVONE, Method: PREINCUBATION) “active; positive”; (Test System: AMES SALMONELLA TYPHIMURIUM, Strain/Indicator: TA1537, Metabolic Activation: NONE, Method: PREINCUBATION) “active; positive”; (Test System: AMES SALMONELLA TYPHIMURIUM, Strain/Indicator: TA1537, Metabolic Activation: RAT LIVER S-9, PHENOBARBITAL AND BETA-NAPHTHOFLAVONE, Method: PREINCUBATION) “inactive; negative”. Also, the mutagenic call is “active; positive” (Test System: AMES SALMONELLA TYPHIMURIUM, Strain/Indicator: TA2638A, Metabolic Activation: RAT LIVER S-9, AROCLOR 1254, Method: STANDARD PLATE); “inactive; negative” (Test System: AMES SALMONELLA TYPHIMURIUM, Strain/Indicator: TA7001, Metabolic Activation: NONE, Method: PREINCUBATION); “inactive; negative” (Test System: AMES SALMONELLA TYPHIMURIUM, Strain/Indicator: TA7002, Metabolic Activation: NONE, Method: PREINCUBATION); “inactive; negative” (Test System: AMES SALMONELLA TYPHIMURIUM, Strain/Indicator: TA7003, Metabolic Activation: NONE, Method: PREINCUBATION); “active; positive” (Test System: AMES SALMONELLA TYPHIMURIUM, Strain/Indicator: TA7004, Metabolic Activation: NONE, Method: PREINCUBATION); “active; positive” (Test System: AMES SALMONELLA TYPHIMURIUM, Strain/Indicator: TA7005, Metabolic Activation: NONE, Method: PREINCUBATION). Besides, the mutagenic call by setting is: (Test System: AMES SALMONELLA TYPHIMURIUM, Strain/Indicator: TA7006, Metabolic Activation: NONE, Method: PREINCUBATION) “active; positive”; (Test System: E. COLI, Strain/Indicator: W3110, Metabolic Activation: NONE, Method: PREINCUBATION) “active; positive”; (Test System: E. COLI, Strain/Indicator: WP2UVRA, Metabolic Activation: NONE, Method: PREINCUBATION) “active; positive”; (Test System: E. COLI, Strain/Indicator: WP2UVRA, Metabolic Activation: RAT LIVER S-9, PHENOBARBITAL AND BETA-NAPHTHOFLAVONE, Method: PREINCUBATION) “active; positive”; (Test System: MOUSE LYMPHOMA, Strain/Indicator: L5178Y (TK+/TK-), Metabolic Activation: NONE, Method: SUSPENSION/PLATE) “active; positive”.
`CSC[C@H](N)C(=O)O`: the mutagenic call was “inactive; negative” (Test System: AMES SALMONELLA TYPHIMURIUM, Strain/Indicator: TA98, Metabolic Activation: NONE, Method: PREINCUBATION); “inactive; negative” (Test System: AMES SALMONELLA TYPHIMURIUM, Strain/Indicator: TA98, Metabolic Activation: RAT, LIVER OR KIDNEY, MICROSOMES, Method: PREINCUBATION); “inactive; negative” (Test System: AMES SALMONELLA TYPHIMURIUM, Strain/Indicator: TA100, Metabolic Activation: NONE, Method: PREINCUBATION); “inactive; negative” (Test System: AMES SALMONELLA TYPHIMURIUM, Strain/Indicator: TA100, Metabolic Activation: RAT, LIVER OR KIDNEY, MICROSOMES, Method: PREINCUBATION); “inactive; negative” (Test System: AMES SALMONELLA TYPHIMURIUM, Strain/Indicator: TA102, Metabolic Activation: NONE, Method: PREINCUBATION); “inactive; negative” (Test System: AMES SALMONELLA TYPHIMURIUM, Strain/Indicator: TA102, Metabolic Activation: RAT, LIVER OR KIDNEY, MICROSOMES, Method: PREINCUBATION). For the same compound, the mutagenic call is, setting by setting: (Test System: AMES SALMONELLA TYPHIMURIUM, Strain/Indicator: TA2638, Metabolic Activation: NONE, Method: PREINCUBATION) “inactive; negative”; (Test System: AMES SALMONELLA TYPHIMURIUM, Strain/Indicator: TA2638, Metabolic Activation: RAT, LIVER OR KIDNEY, MICROSOMES, Method: PREINCUBATION) “inactive; negative”.
As for `CC(=O)N(O)c1ccc2ccc3cccc4ccc1c2c34`, the mutagenic call is, setting by setting: (Test System: AMES SALMONELLA TYPHIMURIUM, Strain/Indicator: TA98(1,8-DNP6), Metabolic Activation: NONE, Method: STANDARD PLATE) “active; positive”; (Test System: AMES SALMONELLA TYPHIMURIUM, Strain/Indicator: TA98(1,8-DNP6), Metabolic Activation: RAT, LIVER, S-9, AROCLOR 1254, Method: STANDARD PLATE) “active; positive”; (Test System: AMES SALMONELLA TYPHIMURIUM, Strain/Indicator: TA98(NR), Metabolic Activation: NONE, Method: STANDARD PLATE) “active; positive”; (Test System: AMES SALMONELLA TYPHIMURIUM, Strain/Indicator: TA98(NR), Metabolic Activation: RAT, LIVER, S-9, AROCLOR 1254, Method: STANDARD PLATE) “active; positive”; (Test System: AMES SALMONELLA TYPHIMURIUM, Strain/Indicator: TA98, Metabolic Activation: NONE, Method: STANDARD PLATE) “active; positive”; (Test System: AMES SALMONELLA TYPHIMURIUM, Strain/Indicator: TA98, Metabolic Activation: RAT, LIVER, S-9, AROCLOR 1254, Method: STANDARD PLATE) “active; positive”.

(Values after PubChem BioAssay AID1259407 (Chemical Carcinogenesis Research Information System (CCRIS), 2018).)
